Like-named read-outs stand apart in the source and are kept apart here.
Key:
[1] = tested on: LNCaP prostate cancer cells; assay: Measurement of cellular proliferation, LNCaP cells; on Effect on proliferation of LNCaP cells: test concentration or dose not given here; format: cell-based, human; conditions: for Effect on proliferation of LNCaP cells: FIGS. 10-39
Method: (§1) Measurement of cellular proliferation: LNCaP cells at 2.5×10^4/well or PC3 cells at 5×10^4/well, both in a final volume of 100 μl, were plated in triplicate in standard flat bottom 96 well tissue culture plates in the presence of drug or vehicle (DMSO). Unless otherwise indicated, cells were grown for 48 hours at 37° C. in a CO2 incubator. Relative cell growth was determined with the CellTiter 96 aqueous cell proliferation assay (Promega, Madison, Wis.) as described by the manufacturer using an automated plate reader. Results were calculated in a blinded fashion and are means of triplicate determinations.
(§2) For the 48 hour proliferation, cells were cultured with calcium channel antagonists or without calcium channel antagonists. The IC50 values of the calcium channel antagonists were determined.
(§3) Using the measurement cell proliferation assay described hereinabove, the cell lines Jurkat, LNCap (prostate cancer cell), PC-31 (prostate cancer cell), DU145 (prostate cancer cell), MDA-468 (breast cancer cell), MDA-36 (Breast cancer cell), MCF-7 (breast cancer cell), MIA PaCa-2 (pancreatic cancer cell), Hep G2 (liver cancer cell), A549 (non-small cell lung cancer cells), NCI H460 (non-small cell lung cancer cells), HT-29 (colon cancer cell), HCT-116 (colon cancer cell) and SK OV-3 (ovarian cancer cell) were cultured in the presence of TH-1177, TH-1205, TH-1201, TH-2109, TH-2029, TH-2043, TN-2085 and TH-2279.

[2] = tested on: MDA-361 cells (breast cancer cell); assay: Measurement of cellular proliferation, MDA-361 cells; format: cell-based; conditions: for Effect on proliferation of MDA-361 cells: 48 hours, FIGS. 10-39
Method: as §1, §2, §3

[3] = tested on: Jurkat cells; assay: Measurement of cellular proliferation, Jurkat cells; format: cell-based; conditions: for Effect on proliferation of Jurkat cells: FIGS. 10-39
Method: as §1, §2, §3

[4] = tested on: MDA-468 (breast cancer cell); assay: Measurement of cellular proliferation, MDA-468 cells; on Effect on proliferation of MDA-468 cells: test concentration or dose not given here; format: cell-based; conditions: for Effect on proliferation of MDA-468 cells: 48 hours, FIGS. 10-39; for IC50: MDA-468, 48 hours
Method: as §1, §2, §3

[5] = tested on: PC3 prostate cancer cells; assay: Measurement of cellular proliferation, PC3 cells; format: cell-based, human; conditions: for Effect on proliferation of PC3 cells: 48 hours, FIGS. 10-39; for IC50: PC-3, 48 hours, read-out: PROLIFERATION IC50 PC-3
Method: as §1, §2, §3

[6] = tested on: DU145 (prostate cancer cell); assay: Measurement of cellular proliferation, DU145 cells; format: cell-based; conditions: DU 145, 48 hours
Method: as §1, §2, §3

[7] = tested on: SK OV-3 (ovarian cancer cell); assay: Measurement of cellular proliferation, SK OV-3 cells; format: cell-based; conditions: SK-OV-3, 48 hours
Method: as §1, §2, §3

[8] = tested on: NCI H460 (non-small cell lung cancer cells); assay: Measurement of cellular proliferation, NCI H460 cells; format: cell-based; conditions: NCI H460, 48 hours; read-out: PROLIFERATION IC50 NCl H460
Method: as §1, §2, §3

[9] = tested on: MIA PaCa-2 (pancreatic cancer cell); assay: Measurement of cellular proliferation, MIA PaCa-2 cells; format: cell-based; conditions: MIA PaCa-2, 48 hours
Method: as §1, §2, §3

[10] = tested on: HT-29 (colon cancer cell); assay: Measurement of cellular proliferation, HT-29 cells; format: cell-based; conditions: HT-29, 48 hours
Method: as §1, §2, §3

[11] = tested on: A549 (non-small cell lung cancer cells); assay: Measurement of cellular proliferation, A549 cells; format: cell-based; conditions: A549, 48 hours
Method: as §1, §2, §3

[12] = tested on: Hep G2 (liver cancer cell); assay: Measurement of cellular proliferation, Hep G2 cells; format: cell-based; conditions: Hep G2, 48 hours
Method: as §1, §2, §3

[13] = tested on: HCT-116 (colon cancer cell); assay: Measurement of cellular proliferation, HCT-116 cells; format: cell-based; conditions: HCT 116, 48 hours
Method: as §1, §2, §3

[14] = tested on: MCF-7 (breast cancer cell); assay: Measurement of cellular proliferation, MCF-7 cells; format: cell-based; conditions: MCF-7, 48 hours
Method: as §1, §2, §3

[15] = Example 7, LNCaP, read-out: cell proliferation test of Example 6 repeated, LNCaP
[16] = Example 7, MDA-361, read-out: cell proliferation test of Example 6 repeated, MDA-361
[17] = Example 7, Jurkat, read-out: cell proliferation test of Example 6 repeated, Jurkat
[18] = LNCaP, 48 hours, read-out: PROLIFERATION IC50 LNCaP
[19] = MDA-361, 48 hours, read-out: PROLIFERATION IC50 MDA-361
[20] = Jurkat, 48 hours, read-out: PROLIFERATION IC50 Jurkat

| SMILES | Effect on proliferation of MDA-468 cells [4] | Effect on proliferation of PC3 cells [5] | Effect on proliferation of LNCaP cells ([1]; 48 hours) | Effect on proliferation of MDA-361 cells [2] | Effect on proliferation of Jurkat cells ([3]; 48 hours) | IC50 [6] [µM] | IC50 [7] [µM] | IC50 [8] [µM] | IC50 [9] [µM] | IC50 [4] [µM] | IC50 [10] [µM] | IC50 [5] [µM] | IC50 [11] [µM] | IC50 [1, 18] [µM] | IC50 [12] [µM] | IC50 [2, 19] [µM] | IC50 [3, 20] [µM] | IC50 [13] [µM] | IC50 [14] [µM] | also measured |
| --- | --- | --- | --- | --- | --- | --- | --- | --- | --- | --- | --- | --- | --- | --- | --- | --- | --- | --- | --- | --- |
| COc1cccc(CCN2CCC[C@H]2COC(c2ccccc2)c2ccc(Cl)cc2)c1 (stereo partly drawn) [TH-3105] |  |  |  |  |  |  |  |  |  |  |  |  |  |  |  |  |  |  |  | IC50 [1, 15]: 3.2 µM; IC50 [2, 16]: 29 µM; IC50 [3, 17]: 5 µM |
| COc1ccc(CCN2CCCC2COC(c2ccccc2)c2ccccc2)cc1 (stereo not drawn) [TH-1113] | concentration dependent inhibition | concentration dependent inhibition | concentration dependent inhibition | concentration dependent inhibition | concentration dependent inhibition |  |  |  |  |  |  |  |  |  |  |  |  |  |  |  |
| c1ccc(C(CN2CCCCC2)c2ccccc2)cc1 [MMR-64] | inhibition | inhibition | inhibition | inhibition | inhibition |  |  |  |  |  |  |  |  |  |  |  |  |  |  |  |
| COc1ccc(CCN2CCC[C@H]2COC(c2ccc(Cl)cc2)c2ccc(Cl)cc2)cc1 [TH-2019] |  |  |  |  |  | 28 | 30 | 12 | 17 | 21 | ~100 | 19 | 72 | 4 | 30 | 23 | 7 | 31 | 30 |  |
| COc1ccc(CCN2CCCC2COC(c2ccccc2)c2ccc(Cl)cc2)cc1 (stereo not drawn) [TH-1211] | concentration dependent inhibition | concentration dependent inhibition | concentration dependent inhibition | concentration dependent inhibition | concentration dependent inhibition | 13 | 23 | 13 | 17 | 11 | ~90 | 17 | 41 | 3 | 20 | 14 | 4 | 32 | 24 |  |
| c1ccc(C(CN2CCC(COC(c3ccccc3)c3ccccc3)CC2)c2ccccc2)cc1 [MMR-70] | inhibition | inhibition | inhibition | inhibition | inhibition |  |  |  |  |  |  |  |  |  |  |  |  |  |  |  |
| COc1ccc(CCN2CCC(COC(c3ccccc3)c3ccccc3)CC2)cc1 [TH-1087] | concentration dependent inhibition | concentration dependent inhibition | concentration dependent inhibition | concentration dependent inhibition | concentration dependent inhibition |  |  |  |  |  |  |  |  |  |  |  |  |  |  |  |
| COc1ccc(CCN2CCC(COC(c3ccc(Cl)cc3)c3ccc(Cl)cc3)CC2)cc1 [TH-2043] |  |  |  |  |  | 9 | 23 | 10 | 17 | 8 | > 100 | 14 | 20 | 4 | > 100 | 13 | 8 | 10 | 29 |  |
| COc1ccc(CCN2CCC(COC(c3ccccc3)c3ccc(Cl)cc3)CC2)cc1 (stereo not drawn) [TH-2029] |  |  |  |  |  | 17 | 24 | 24 | 17 | 10 | ~60 | 18 | 26 | 5 | 30 | 16 | 11 | 18 | 37 |  |
| COc1ccccc1CCN1CCC[C@H]1COC(c1ccccc1)c1ccc(Cl)cc1 (stereo partly drawn) [TH-3104] |  |  |  |  |  |  |  |  |  |  |  |  |  |  |  |  |  |  |  | IC50 [1, 15]: 2.4 µM; IC50 [2, 16]: 13 µM; IC50 [3, 17]: 3.8 µM |
| COc1ccc(CCN2CCCC(COC(c3ccccc3)c3ccc(Cl)cc3)C2)cc1 (stereo not drawn) [TH-1205] | concentration dependent inhibition | concentration dependent inhibition | concentration dependent inhibition | concentration dependent inhibition | concentration dependent inhibition | 21 | 33 | 35 | 17 | 13 | ~100 | 23 | 93 | 5 | 40 | 19 | 11 | 30 | 70 |  |
| COc1ccc(CCCN2CCC[C@H]2COC2c3ccccc3-c3ccccc32)cc1 [TH-2085] |  |  |  |  |  | 41 | 80 | 31 | 17 | 14 | ~60 | 36 | 90 | 4 | 28 | 26 | 10 | 50 | 33 |  |

— patent US6946475B1, “Anticancer calcium channel blockers” (University of Virginia Patent Foundation, priority 1999, dated 2005)
